{"source": "patent US10806743B1", "about": "“Method of administering lactitol to reduce plasma concentration of lactitol” (Braintree Laboratories, Inc., priority 2017, dated 2020)", "key": {"[1]": {"conditions": "chronic idiopathic constipation; cited from earlier work"}, "calcium absorption": {"test_system": "calcium absorption", "conditions": "rats, diet containing 5% lactitol, two weeks; cited from earlier work"}, "[2]": {"assay": "Adverse events in Phase 3 constipation studies", "type": "in vivo, human", "conditions": "Phase 3 studies, doses required for effective treatment of constipation", "excerpt": "An Adverse Event (AE) is any untoward medical occurrence associated with the use of a drug in humans, whether or not considered drug related. An AE can therefore be any unfavorable and unintended sign (including a clinically significant abnormal laboratory finding), symptom, or disease temporally associated with the use of a medicinal (investigational) product.\nThese adverse reactions were transient and subsided rapidly upon dose adjustment or cessation."}, "plasma glucose": {"test_system": "plasma glucose", "conditions": "25 grams, eight healthy male volunteers; cited from earlier work"}, "[3]": {"conditions": "estimated; cited from earlier work"}, "[4]": {"assay": "Fed v. fasted administration of lactitol: plasma lactitol pharmacokinetics (LC-MS/MS)", "type": "in vivo, human", "procedure": "A study was performed to determine the effects of food on absorption of lactitol. Sixteen subjects (8 males and 8 females) were randomized to either Sequence A (fed/fasted) and the other half to Sequence B (fasted/fed) on Day 1 prior to dosing. Subjects returned for Day 8 dosing, 7 days following dose at Day 1, to receive study drug following the opposite food sequence, have pharmacokinetic samples collected and safety procedures performed. A standard dinner was served approximately 6 hours following dose on Day 1 or Day 8. A nighttime snack was permitted, and a standard breakfast and lunch were served prior to discharge from the clinic.\nNo food was allowed prior to dosing; water was consumed up to one hour before dosing and then only after one hour after dosing. Subjects assigned to Sequence A (fed/fasted) received a high-calorie and high-fat meal for lunch at 11:30 AM, as described in Table 1. Subjects receiving the high fat high calorie lunch completed the meal within 30 minutes. Dose was administered 30 minutes after the start of the meal. Subjects assigned to Sequence B (fasted/fed) continued to fast prior to dose. The staff mixed the contents of two (2) packets (approximately 21 g) with 8 oz of water. Subjects consumed the dose over 5 to 10 minutes.\nDoses were administered 30 minutes after the start of the meal. Subjects assigned to Sequence B (fasted/fed) continued to fast prior to dose. The CRU mixed the contents of two (2) packets (approximately 21 g) with 8 oz of water. Subjects consumed the dose over 5 to 10 minutes.\nA high-fat (approximately 50 percent of total caloric content of the meal) and high-calorie (approximately 800 to 1000 calories) meal was used. Blood samples were collected prior to dosing and at 10, 20, 30 and 60 minutes (within +/−3 minutes) and then at 2, 4, 6, 8, 10, 12, 16, 18, 20 and 24 hours (within +/−30 minutes) following dose.\nAn LC-MS/MS method for the determination of lactitol concentrations in human plasma has been successfully developed and validated. The calibration range of the method is 25.0 to 10,000 ng/ml for lactitol using a 50 μl sample aliquot."}}}
{"molecule": "CCCCC(F)(F)[C@@]1(O)CC[C@H]2[C@@H](CC(=O)[C@@H]2CCCCCCC(=O)O)O1", "note": "[Lubiprostone]", "values": [{"measurement": "incidence of most common adverse reactions (nausea, diarrhea, headache, abdominal pain, abdominal distention, flatulence)", "setting": "[1]", "result": "> 4", "unit": "%"}]}
{"molecule": "OC[C@@H](O)[C@@H](O[C@@H]1O[C@H](CO)[C@H](O)[C@H](O)[C@H]1O)[C@H](O)[C@@H](O)CO", "note": "[lactitol]", "values": [{"measurement": "calcium absorption", "setting": "calcium absorption", "result": "significant increase"}, {"measurement": "adverse events associated with administration", "setting": "[2]", "result": "flatulence, nausea, vomiting, abdominal cramping or pain and bloating"}, {"measurement": "rise in plasma glucose after ingestion", "setting": "plasma glucose", "result": "no rise in plasma glucose"}, {"measurement": "fraction of an oral dose excreted in urine", "setting": "[3]", "result": 0.6, "unit": "%"}, {"measurement": "% CV values for λz and λ1/2, fasted v. fed", "setting": "[4]; fasted and fed conditions", "result": "similar"}, {"measurement": "time of peak plasma concentration", "setting": "[4]; fasted population", "result": 4, "unit": "h"}, {"measurement": "peak plasma concentration of lactitol", "setting": "[4]; fasted population, approx. 21 g oral dose", "result": 2412, "unit": "ng/mL"}, {"measurement": "average plasma concentration of lactitol", "setting": "[4]; fasted population, hour 1, approx. 21 g oral dose", "result": 1193, "unit": "ng/mL"}, {"measurement": "plasma concentration of lactitol", "setting": "[4]; fasted population, hour 8", "result": 935, "unit": "ng/mL"}, {"measurement": "plasma concentration of lactitol", "setting": "[4]; fasted population, hour 12 post-dose", "result": 218, "unit": "ng/mL"}, {"measurement": "plasma concentration of lactitol remained above", "setting": "[4]; fasted population, until hour 8", "result": "above 1000 ng/mL"}, {"measurement": "time of peak plasma concentration", "setting": "[4]; fed population", "result": 4, "unit": "h"}, {"measurement": "peak plasma concentration of lactitol", "setting": "[4]; fed population (dose 30 minutes after start of high-fat, high-calorie meal)", "result": 738.25, "unit": "ng/mL"}, {"measurement": "plasma concentration of lactitol", "setting": "[4]; fed population, hour 8", "result": 387.93, "unit": "ng/mL"}, {"measurement": "plasma concentration of lactitol", "setting": "[4]; fed population, hour 12 post-dose", "result": 124.16, "unit": "ng/mL"}, {"measurement": "AUC, fed population smaller than fasted population", "setting": "[4]; fed v. fasted", "result": 10, "unit": "times"}, {"measurement": "peak concentration, fed compared with fasted population", "setting": "[4]; fed v. fasted", "result": "more than three times smaller"}]}
